Consider one compound from US20200383985A1, “Inhibitors of Protease Activated Receptor-2” (Endosome Therapeutics, Inc., priority 2017, published 2020).

Read-outs that look alike come from different tables or passages of the source.

One experiment addresses T1, human (h) PAR2 (Homo sapiens, UniProt P55085).
T1 construct: expressed in transfected cells; host or cells: KNRK cells (KNRK-hPAR2)
T1 sequence (P55085 26-397): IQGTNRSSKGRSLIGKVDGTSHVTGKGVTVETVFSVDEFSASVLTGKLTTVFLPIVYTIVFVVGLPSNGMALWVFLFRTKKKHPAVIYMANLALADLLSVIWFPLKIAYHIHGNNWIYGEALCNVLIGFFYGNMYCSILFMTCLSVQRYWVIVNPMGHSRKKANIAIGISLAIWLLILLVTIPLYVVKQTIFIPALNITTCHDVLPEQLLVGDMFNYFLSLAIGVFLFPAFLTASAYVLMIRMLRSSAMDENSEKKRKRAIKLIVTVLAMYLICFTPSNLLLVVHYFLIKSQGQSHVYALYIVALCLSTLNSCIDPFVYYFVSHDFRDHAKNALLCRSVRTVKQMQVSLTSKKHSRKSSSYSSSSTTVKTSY
Nature of the experiment: IP1 accumulation assay in KNRK-hPAR2 cells. It is filed as cell-based.

In the next experiment the test system is KNRK cells. The experiment is described as follows: ATP-stimulated IP1 accumulation in KNRK cells. It is filed as cell-based. Conditions: ATP (10 μM). The procedure:
KNRK-hPAR2, KNRK or HT-29 cells were seeded at a density of 50×10^3 cells/well in a clear poly-d-lysine coated 96 well tissue culture plate. Following 24 h incubation at 37° C. and 5% CO2, media was removed and replaced with 80 μl IP1 stimulation buffer (10 mM HEPES, 1 mM CaCl2, 0.5 mM MgCl2, 4.2 mM KCl, 146 mM NaCl, 5.5 mM glucose, 50 mM LiCl). Following stimulation buffer addition, the wells received 10 μl of 10× antagonists or DMSO vehicle. All plates were further incubated at 37° C., 5% CO2 for 30 min. 10 μl of 2F or ATP was added to the plates and further incubated for 40 min. Following incubation, stimulation buffer was quickly removed by aspiration and replaced with 25 μl lysis buffer (IP-One HTRF® assay kit, Cisbio). Following incubation of the lysates at 37° C., 5% CO2 for 10′, 10 μl lysate was transferred to a 384-well OptiPlate (PerkinElmer) and detected using the IP-One HTRF® assay kit (Cisbio).
Compounds of the invention (added at 10×concentrations in a 10 μL volume) were incubated for 30 min prior to the addition of 10 μM ATP or 100 nM or 300 nM PAR2 agonist (2F; EC80, added at 10×concentrations in a 10 μL volume) and then further incubated for 40 min. After lysis, the inositol phosphate 1 was quantified with IP-One HTRF® assay kit, Cisbio. The data was analysed with Prism, GraphPad to calculate the IC50 values, shown below in Table 1. […]

For a further experiment, the system named is mice. Nature of the experiment: Visceromotor response (VMR) to colorectal distension (CRD). Format: in vivo, mouse. Conditions: 30 mg/kg, 100 μL enema into the colon, 30 min before the protease mixture. As for the experimental part: Noxious colorectal distension (CRD) triggers the visceromotor response (VMR), a nociceptive brainstem reflex consisting of contraction of abdominal muscles, which can be monitored by electromyography. This approach allows assessment of visceral sensitivity in awake mice (Castro, J. et al., Br. J. Pharmacol. 2017, 175(12): 2384-2398). To examine protease-induced hy-persensitivity, a protease mixture (10 nM trypsin+100 nM NE+100 nM CS) or vehicle (saline) (100 μL) was instilled into the colon (enema) of healthy mice. After 15 min, the VMR was measured in response to graded CRD (20-80 mm Hg) with a barostat balloon. In vehicle-treated mice, CRD induced a graded VMR (FIG. 9I). […] Because alterations in the compliance of the colon can alter VMR to CRD, the pressure/volume relationship was measured at all distending pressures. Compliance of the colon was unaffected by the protease mixture or I-343 (FIGS. 21E and F). […]
Electromyography (EMG) of abdominal muscles was used to monitor VMR to CRD (Eichel, K. et al., Nat. Cell Biol. 2016, 18(3): 303-310). […] The EMG signal was recorded (NL100AK headstage), amplified (NL104), filtered (NL 125/126, Neurolog, Digitimer Ltd, bandpass 50-5000 Hz), and digitized (CED 1401, Cambridge Electronic Design) for off-line analysis using Spike2 (Cambridge Electronic Design). […]

As for `Cc1nc(C(=O)N2CCN(C(=O)c3cn4nc(-c5ccc(F)cc5)cc(C(C)(C)C)c4n3)C(C)(C)C2)n[nH]1` [Compound I-343, (8-(tert-butyl)-6-(4-fluorophenyl)imidazo[1,2-b]pyridazin-2-yl)(2,2-dimethyl-4-(5-methyl-1H-1,2,4-triazole-3-carbonyl)piperazin-1-yl)methanone], the IC50 on human (h) PAR2 (2F (100 nM)-induced IP1, KNRK-hPAR2 cells, read-out: KNRK-PAR2 100 nM 2F (IC50)) was 0.666 µM; on human (h) PAR2 (trypsin (30 nM), read-out: IC50, trypsin-induced IP1 in KNRK-hPAR2 cells) it was 7.51 µM; at human (h) PAR2 (trypsin (30 nM), read-out: pIC50, trypsin-induced IP1 in KNRK-hPAR2 cells (converted)), 7.41 µM. In the experiment with KNRK cells, the “ATP-stimulated IP1” value is “did not affect”. Besides, in the experiment on mice, the “protease mixture-amplified VMR to CRD” value is on record as “abolished the response”.
